These are literature values, as cited in patent US20200078455A1, “MESOTHELIN VACCINE FOR OVARIAN CANCER PREVENTION” (SRI INTERNATIONAL, priority 2017, published 2020).

Regarding Oregovomab, where the note is “compared with women who received a placebo”, the recurrence rate entry is listed as “no difference in the recurrence rate”. For the same molecule, under “women with ovarian cancer”, the immune response entry is reported as “elicit an immune response”.

B1: Abagovomab (antibody, chains of the INN, looked up, V domains shown)
VH: QVKLQESGAELARPGASVKLSCKASGYTFTNYWMQWVKQRPGQGLDWIGAIYPGDGNTRYTHKFKGKATLTADKSSSTAYMQLSSLASEDSGVYYCARGEGNYAWFAYWGQGTTVTVSS
VL: DIELTQSPASLSASVGETVTITCQASENIYSYLAWHQQKQGKSPQLLVYNAKTLAGGVSSRFSGSGSGTHFSLKIKSLQPEDFGIYYCQHHYGILPTFGGGTKLEIK
notes: ovarian cancer vaccine that has been studied
On to B1, for which, where the note is “women with ovarian cancer”, the immune response entry is “elicit an immune response” and the survival entry is on record as “not clear that this leads to longer survival”.
